Test results reported in patent US7517873B2, “Substituted pyrimidodiazepines” (Hoffman-La Roche Inc., priority 2007, dated 2009).

molecular target: T1, GST-PLK1 (Homo sapiens, UniProt P53350); assay: Biochemical Characterization Assay: GST-PLK1 kinase HTRF assay with GST-p53 substrate; conditions: full-length GST-PLK1, GST-p53 and ATP, 37° C. for 35 minutes, HTRF signal
T1 construct: Full-length, active GST-PLK1 is purified from Sf9 insect cells; made in house; host or cells: Sf9 insect cells
Method: Biochemical Characterization Assay
Full-length, active GST-PLK1 is purified from Sf9 insect cells, and full-length GST-p53 is purified from E. coli. Anti-phospho p53 antibody is from Cell Signaling Technology. Europium-conjugated anti-rabbit antibody is from PerkinElmer Life and Analytical Sciences. APC-conjugated anti-GST antibody is from Prozyme.
To assay compounds of the invention, two microliters of test compound (0.6 nM-4 mM) in DMSO or plain DMSO for control wells, 38 microliters of 20 mM HEPES pH 7, 50 mM NaCl, 10 mM MgCl2, 0.5 mM TCEP, 0.1 mM sodium orthovanadate, 0.1 mg/mL BSA, and 0.05% Triton X-100 (Kinase Assay Buffer) are added. […] Six microliters of GST-PLK1 (3 ug/mL) in Kinase Assay Buffer are then added and the solution incubated at 37° C. for 35 minutes. Six microliters of solution containing 43 mM EDTA to stop the reaction and a 1:600 dilution of anti-phospho-p53 antibody in 20 mM HEPES pH 7, 50 mM NaCl, and 0.5 mg/mL BSA (Antibody Binding Buffer) are added and the solution incubated at 37° C. for 30 minutes. […] The HTRF signal is read on an Envision reader from PerkinElmer Life and Analytical Sciences.

T1 sequence (P53350 whole entry): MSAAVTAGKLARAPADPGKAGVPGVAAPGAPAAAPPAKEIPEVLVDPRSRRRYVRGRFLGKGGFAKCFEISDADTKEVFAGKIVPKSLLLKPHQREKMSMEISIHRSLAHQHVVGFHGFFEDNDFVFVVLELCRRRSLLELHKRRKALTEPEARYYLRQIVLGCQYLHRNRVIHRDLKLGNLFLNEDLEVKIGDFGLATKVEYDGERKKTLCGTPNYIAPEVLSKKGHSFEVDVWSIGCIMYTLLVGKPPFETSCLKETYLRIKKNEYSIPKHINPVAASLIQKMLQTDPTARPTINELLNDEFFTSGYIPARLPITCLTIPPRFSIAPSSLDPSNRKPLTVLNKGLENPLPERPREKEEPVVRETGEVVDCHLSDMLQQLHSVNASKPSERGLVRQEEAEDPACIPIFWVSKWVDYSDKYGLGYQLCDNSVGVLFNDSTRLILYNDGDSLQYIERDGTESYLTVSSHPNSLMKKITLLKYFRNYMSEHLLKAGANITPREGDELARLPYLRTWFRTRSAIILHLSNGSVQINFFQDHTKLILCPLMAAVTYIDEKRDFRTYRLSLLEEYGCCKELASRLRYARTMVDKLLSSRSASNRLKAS

`COc1cc(C(=O)NC2CCN(C)CC2)ccc1Nc1ncc2c(n1)N(C1CCCC1)C[C@H](C)C(=O)N2C` [I-2b, 7S-4-(9-cyclopentyl-5,7-dimethyl-6-oxo-6,7,8,9-tetrahydro-5H-pyrimido[4,5-b][1,4]diazepin-2-ylamino)-3-methoxy-N-(1-methyl-piperidin-4-yl)-benzamide] and `COc1cc(C(=O)NC2CCN(C)CC2)ccc1Nc1ncc2c(n1)N(C1CCCC1)C[C@@H](C)C(=O)N2C` [I-2a, 7R-4-(9-Cyclopentyl-5,7-dimethyl-6-oxo-6,7,8,9-tetrahydro-5H-pyrimido[4,5-b][1,4]diazepin-2-ylamino)-3-methoxy-N-(1-methyl-piperidin-4-yl)-benzamide] cannot be ordered by IC50: under 500 nM for the first, under 500 nM for the second.

`COc1cc(C(=O)NC2CCN(C)CC2)ccc1Nc1ncc2c(n1)N(C1CCCCC1)CCC(=O)N2` [I-29, 4-(9-Cyclohexyl-6-oxo-6,7,8,9-tetrahydro-5H-pyrimido[4,5-b][1,4]diazepin-2-ylamino)-3-methoxy-N-(1-methyl-piperidin-4-yl)-benzamide] and `COc1cc(C(=O)NC2CCN(C)CC2)ccc1Nc1ncc2c(n1)N(C1CCCCC1)CC(C)C(=O)N2` (racemic) [I-18, (rac)-4-(9-Cyclohexyl-7-methyl-6-oxo-6,7,8,9-tetrahydro-5H-pyrimido[4,5-b][1,4]diazepin-2-ylamino)-3-methoxy-N-(1-methyl-piperidin-4-yl)-benzamide] fall in the same range of IC50: 500 to 5000 nM for the first, 500 to 5000 nM for the second.

`COCCCNC(=O)c1cccc(Nc2ncc3c(n2)N(C2CCCC2)CC(C)C(=O)N3C)c1` (racemic) [I-90, (rac)-3-(9-Cyclopentyl-5,7-dimethyl-6-oxo-6,7,8,9-tetrahydro-5H-pyrimido[4,5-b][1,4]diazepin-2-ylamino)-N-(3-methoxy-propyl)-benzamide] and `CC1CN(C2CCCC2)c2nc(Nc3cccc(C(=O)NCCCN(C)C)c3)ncc2N(C)C1=O` (racemic) [I-70, (rac)-3-(9-Cyclopentyl-5,7-dimethyl-6-oxo-6,7,8,9-tetrahydro-5H-pyrimido[4,5-b][1,4]diazepin-2-ylamino)-N-(3-dimethylamino-propyl)-benzamide] fall in the same range of IC50: 500 to 5000 nM for the first, 500 to 5000 nM for the second.

Compared with `CC1CN(C2CCCC2)c2nc(Nc3ccc(C(=O)Nc4cccnc4)c(Cl)c3)ncc2N(C)C1=O` (racemic) [I-82, (rac)-2-Chloro-4-(9-cyclopentyl-5,7-dimethyl-6-oxo-6,7,8,9-tetrahydro-5H-pyrimido[4,5-b][1,4]diazepin-2-ylamino)-N-pyridin-3-yl-benzamide], `CC1CN(C2CCCC2)c2nc(Nc3cccc(C(=O)Nc4cccnc4)c3)ncc2N(C)C1=O` (racemic) [I-72, (rac)-3-(9-Cyclopentyl-5,7-dimethyl-6-oxo-6,7,8,9-tetrahydro-5H-pyrimido[4,5-b][1,4]diazepin-2-ylamino)-N-pyridin-3-yl-benzamide] is lower in IC50: over 5000 nM for the first, under 500 nM for the second. The second is the more potent here.

`COc1cc(C(=O)NC2CCN(C)CC2)ccc1Nc1ncc2c(n1)N(C1CCC1)CCC(=O)N2C` [I-24, 4-(9-Cyclobutyl-5-methyl-6-oxo-6,7,8,9-tetrahydro-5H-pyrimido[4,5-b][1,4]diazepin-2-ylamino)-3-methoxy-N-(1-methyl-piperidin-4-yl)-benzamide] and `COc1cc(C(=O)NC2CCN(C)CC2)ccc1Nc1ncc2c(n1)N(C1CCCC1(C)C)CCC(=O)N2C` (racemic) [I-59, (rac)-4-[9-(2,2-Dimethyl-cyclopentyl)-5-methyl-6-oxo-6,7,8,9-tetrahydro-5H-pyrimido[4,5-b][1,4]diazepin-2-ylamino]-3-methoxy-N-(1-methyl-piperidin-4-yl)-benzamide] cannot be ordered by IC50: under 500 nM for the first, under 500 nM for the second.

`CC1CN(C2CCCC2)c2nc(Nc3cccc(C(=O)NC4CCN(C)CC4)c3)ncc2N(C)C1=O` (racemic) [I-69, (rac)-3-(9-Cyclopentyl-5,7-dimethyl-6-oxo-6,7,8,9-tetrahydro-5H-pyrimido[4,5-b][1,4]diazepin-2-ylamino)-N-(1-methyl-piperidin-4-yl)-benzamide] and `CC1CN(C2CCCC2)c2nc(Nc3cccc(C(=O)NC4CCOCC4)c3)ncc2N(C)C1=O` (racemic) [I-71, (rac)-3-(9-Cyclopentyl-5,7-dimethyl-6-oxo-6,7,8,9-tetrahydro-5H-pyrimido[4,5-b][1,4]diazepin-2-ylamino)-N-(tetrahydro-pyran-4-yl)-benzamide] fall in the same range of IC50: 500 to 5000 nM for the first, 500 to 5000 nM for the second.

First: COc1cc(C(=O)O)ccc1Nc1ncc2c(n1)N(C1CCCC1)C(C)CC(=O)N2C (racemic) [I-3, (rac)-4-(9-Cyclopentyl-5,8-dimethyl-6-oxo-6,7,8,9-tetrahydro-5H-pyrimido[4,5-b][1,4]diazepin-2-ylamino)-3-methoxy-benzoic acid]
Second: COc1cc(C(=O)NC2CCN(C)CC2)ccc1Nc1ncc2c(n1)N(C1CCCC1)C(C)CC(=O)N2C (racemic) [I-4, (rac)-4-(9-Cyclopentyl-5,8-dimethyl-6-oxo-6,7,8,9-tetrahydro-5H-pyrimido[4,5-b][1,4]diazepin-2-ylamino)-3-methoxy-N-(1-methyl-piperidin-4-yl)-benzamide]
The IC50 of the first is higher: 500 to 5000 nM for the first, under 500 nM for the second.

`COc1cc(C(=O)NC2CCN(C)CC2)ccc1Nc1ncc2c(n1)N(C1CCCC1)C1CCCC1C(=O)N2C` (racemic) [I-68, (rac)-4-(4-Cyclopentyl-9-methyl-10-oxo-1,2,3,3a,4,9,10,10a-octahydro-4,5,7,9-tetraaza-benzo[f]azulen-6-ylamino)-3-methoxy-N-(1-methyl-piperidin-4-yl)-benzamide] and `CCC1CN(C2CCCC2)c2nc(Nc3ccc(C(=O)NC4CCN(C)CC4)cc3OC)ncc2N(C)C1=O` (racemic) [I-13, (rac)-4-(9-Cyclopentyl-7-ethyl-5-methyl-6-oxo-6,7,8,9-tetrahydro-5H-pyrimido[4,5-b][1,4]diazepin-2-ylamino)-3-methoxy-N-(1-methyl-piperidin-4-yl)-benzamide] cannot be ordered by IC50: under 500 nM for the first, under 500 nM for the second.

Compared with `COc1cc(C(=O)N2CCOCC2)ccc1Nc1ncc2c(n1)N(C1CCCCC1)CCC(=O)N2` [I-31, 9-Cyclohexyl-2-[2-methoxy-4-(morpholine-4-carbonyl)-phenylamino]-5,7,8,9-tetrahydro-pyrimido[4,5-b][1,4]diazepin-6-one], `COc1cc(C(=O)NC2CCN(C)CC2)ccc1Nc1ncc2c(n1)N(C1CCCC1)CC(CCO)C(=O)N2C` (racemic) [I-49, (rac)-4-[9-Cyclopentyl-7-(2-hydroxy-ethyl)-5-methyl-6-oxo-6,7,8,9-tetrahydro-5H-pyrimido[4,5-b][1,4]diazepin-2-ylamino]-3-methoxy-N-(1-methyl-piperidin-4-yl)-benzamide] is lower in IC50: over 5000 nM for the first, 500 to 5000 nM for the second. The second is the more potent here.

First: CCN1CCC(NC(=O)c2ccc(Nc3ncc4c(n3)N(C3CCCC3)CC(C)C(=O)N4C)cc2Cl)CC1 (racemic) [I-81, (rac)-2-Chloro-4-(9-cyclopentyl-5,7-dimethyl-6-oxo-6,7,8,9-tetrahydro-5H-pyrimido[4,5-b][1,4]diazepin-2-ylamino)-N-(1-ethyl-piperidin-4-yl)-benzamide]
Second: CC1CN(C2CCCC2)c2nc(Nc3cccc(C(=O)NC4CCCCC4)c3)ncc2N(C)C1=O (racemic) [I-91, (rac)-N-Cyclohexyl-3-(9-cyclopentyl-5,7-dimethyl-6-oxo-6,7,8,9-tetrahydro-5H-pyrimido[4,5-b][1,4]diazepin-2-ylamino)-benzamide]
The IC50 of the first is lower: 500 to 5000 nM for the first, over 5000 nM for the second.

Compared with `CC1CN(C2CCCC2)c2nc(Nc3ccc(OCc4ccccc4)cc3)ncc2N(C)C1=O` (racemic) [I-75, (rac)-2-(4-Benzyloxy-phenylamino)-9-cyclopentyl-5,7-dimethyl-5,7,8,9-tetrahydro-pyrimido[4,5-b][1,4]diazepin-6-one], `COc1cc(C(=O)NC2CCN(C)CC2)ccc1Nc1ncc2c(n1)N(Cc1ccccc1)CC(C)C(=O)N2C` (racemic) [I-42, (rac)-4-(9-Benzyl-5,7-dimethyl-6-oxo-6,7,8,9-tetrahydro-5H-pyrimido[4,5-b][1,4]diazepin-2-ylamino)-3-methoxy-N-(1-methyl-piperidin-4-yl)-benzamide] is lower in IC50: over 5000 nM for the first, 500 to 5000 nM for the second.

`COc1cc(C(=O)Nc2ccncc2)ccc1Nc1ncc2c(n1)N(C1CCC1)CCC(=O)N2C` [I-37, 4-(9-Cyclobutyl-5-methyl-6-oxo-6,7,8,9-tetrahydro-5H-pyrimido[4,5-b][1,4]diazepin-2-ylamino)-3-methoxy-N-pyridin-4-yl-benzamide] and `COc1cc(C(=O)NC2CCN(C)CC2)ccc1Nc1ncc2c(n1)N(C1CCC1)CC(C)C(=O)N2C` (racemic) [I-52, (rac)-4-(9-Cyclobutyl-5,7-dimethyl-6-oxo-6,7,8,9-tetrahydro-5H-pyrimido[4,5-b][1,4]diazepin-2-ylamino)-3-methoxy-N-(1-methyl-piperidin-4-yl)-benzamide] cannot be ordered by IC50: under 500 nM for the first, under 500 nM for the second.

First: COc1cc(C(=O)NC2CCN(C)CC2)ccc1Nc1ncc2c(n1)N(c1ccccc1)CC(C)C(=O)N2C (racemic) [I-51, (rac)-4-(5,7-Dimethyl-6-oxo-9-phenyl-6,7,8,9-tetrahydro-5H-pyrimido[4,5-b][1,4]diazepin-2-ylamino)-3-methoxy-N-(1-methyl-piperidin-4-yl)-benzamide]
Second: CN1C(=O)C2(CC2)CN(C2CCCC2)c2nc(Nc3ccc(C(=O)NC4CCOCC4)cc3)ncc21 [I-63, 4-[(9-Cyclopentyl-6,7,8,9-tetrahydro-5-methyl-6-oxospiro[5H-pyrimido[4,5-b][1,4]diazepine-7,1′-cyclopropan]-2-yl)amino]-N-(tetrahydropyran-4-yl)benzamide]
The IC50 of the first is higher: 500 to 5000 nM for the first, under 500 nM for the second. The second is the more potent here.
